Data reported in BindingDB's records for doi:10.7270/Q20863PV (University of Pittsburgh, 2006).

Target: T1, Dual specificity protein phosphatase 1 (Homo sapiens, UniProt P28562)
T1 sequence (P28562 whole entry): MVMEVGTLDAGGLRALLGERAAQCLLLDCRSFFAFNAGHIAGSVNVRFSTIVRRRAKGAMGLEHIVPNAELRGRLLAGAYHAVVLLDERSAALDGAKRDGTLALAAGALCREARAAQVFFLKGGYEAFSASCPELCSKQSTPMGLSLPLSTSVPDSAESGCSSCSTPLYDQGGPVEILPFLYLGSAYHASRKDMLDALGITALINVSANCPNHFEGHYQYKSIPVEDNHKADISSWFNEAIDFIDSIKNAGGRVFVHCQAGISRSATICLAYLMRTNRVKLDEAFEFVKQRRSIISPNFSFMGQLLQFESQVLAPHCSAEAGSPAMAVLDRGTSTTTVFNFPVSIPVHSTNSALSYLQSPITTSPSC
Experiment: MKP-1 phosphatase inhibition under DTT, dose response, biochemical, DTT added, probe assessment (AID 558)

SMILES	IC50
Cc1ccc(C)n1-c1cccc(C(=O)O)c1	16.9 µM
O=C(Nc1ccc2nc(-c3ccco3)c(-c3ccco3)nc2c1)N1CCCCCC1	24.1 µM
CCCCCC#CCC#CCC#CCC#CCCCC(=O)O	13.1 µM
Cn1ncnc2c(=O)n(C)c(=O)nc1-2	> 50 µM
[O-]/[N+](=C\c1ccncc1)c1ccccc1	46.6 µM
O=C1C=Cc2ccccc2C1=O [1,2-dihydronaphthalene-1,2-dione]	22.5 µM
Cc1nc2cc(-c3cccc(F)c3)nn2c(C)c1CCC(=O)N1CCC2(CC1)OCCO2 [1-(1,4-dioxa-8-azaspiro[4.5]decan-8-yl)-3-[2-(3-fluorophenyl)-5,7-dimethyl-6-pyrazolo[1,5-a]pyrimidinyl]-1-propanone]	> 50 µM
CCn1nc(-c2ccccc2)nc2c(=O)n(C)c(=O)nc1-2 [1-Ethyl-6-methyl-3-phenyl-1H-pyrimido[5,4-e][1,2,4]triazine-5,7-dione]	> 50 µM
Cc1cc(C)n2c(SCC(=O)N3CCN(S(=O)(=O)c4ccc(Cl)cc4)CC3)nnc2n1 [1-[4-(4-chlorophenyl)sulfonyl-1-piperazinyl]-2-[(5,7-dimethyl-[1,2,4]triazolo[4,3-a]pyrimidin-3-yl)thio]ethanone]	49.9 µM
[O-]/[N+](=C\c1ccc(OC(F)F)cc1)c1ccccc1 [1-[4-(difluoromethoxy)phenyl]-N-phenylmethanimine oxide]	> 50 µM
CCCCn1c(SCC(=O)c2ccc(OC)cc2OC)nc2cc(S(N)(=O)=O)ccc21 [1-butyl-2-[2-(2,4-dimethoxyphenyl)-2-oxidanylidene-ethyl]sulfanyl-benzimidazole-5-sulfonamide]	42.1 µM
CCn1nc(-c2cccs2)nc2c(=O)n(C)c(=O)nc1-2 [1-ethyl-6-methyl-3-thiophen-2-yl-pyrimido[5,4-e][1,2,4]triazine-5,7-dione]	> 50 µM
O=C(Nc1ccccc1)c1ccc2nc(-c3ccco3)c(-c3ccco3)nc2c1 [2,3-di-2-furyl-N-phenyl-6-quinoxalinecarboxamide]	32 µM
CC(C)Cn1c(N)c(C(=O)COC(=O)c2cc(-c3ccco3)nc3ccccc23)c(=O)n(C)c1=O [2-(2-furanyl)-4-quinolinecarboxylic acid [2-[4-amino-1-methyl-3-(2-methylpropyl)-2,6-dioxo-5-pyrimidinyl]-2-oxoethyl] ester]	25.5 µM
CCOc1ccc(-c2cc3nc(C4CCN(C(=O)OC(C)(C)C)CC4)c(C(=O)O)cn3n2)cc1 [2-(4-ethoxyphenyl)-5-[1-[(2-methylpropan-2-yl)oxy-oxomethyl]-4-piperidinyl]-6-pyrazolo[1,5-a]pyrimidinecarboxylic acid]	27.7 µM
COc1ccc(-c2cc3nc(C4CCN(C(=O)OC(C)(C)C)CC4)c(C(=O)O)cn3n2)cc1 [2-(4-methoxyphenyl)-5-[1-[(2-methylpropan-2-yl)oxy-oxomethyl]-4-piperidinyl]-6-pyrazolo[1,5-a]pyrimidinecarboxylic acid]	36.3 µM
Cc1cccc(NC(=O)c2cc(NC(=O)C3CCCCC3C(=O)O)ccc2N2CCCCC2)c1 (configuration not stated) [2-({[3-{[(3-methylphenyl)amino]carbonyl}-4-(1-piperidinyl)phenyl]amino}carbonyl)cyclohexanecarboxylic acid]	> 50 µM
Cc1ccc(/C=C/C2=Cc3c(sc(NC(=O)CSc4nnc(N)[nH]4)c3C#N)C(C)(C)C2)o1 [2-[(5-azanyl-1H-1,2,4-triazol-3-yl)sulfanyl]-N-[3-cyano-7,7-dimethyl-5-[(E)-2-(5-methylfuran-2-yl)ethenyl]-6H-1-benzothiophen-2-yl]ethanamide]	19.8 µM
CCCCNC(=O)c1c(N)n(CCCOC)c2nc3ccccc3nc12 [2-amino-N-butyl-1-(3-methoxypropyl)-3-pyrrolo[3,2-b]quinoxalinecarboxamide]	> 50 µM

SMILES	IC50
N#Cc1c(N)sc(=S)c2c1CCN(Cc1ccccc1)C2 [3-Amino-7-benzyl-1-thioxo-5,6,7,8-tetrahydro-1H-thiopyrano[3,4-c]pyridine-4-carbonitrile]	> 50 µM
O=C1C=C(NCc2ccc(Cl)c(Cl)c2)CC1 [3-[(3,4-dichlorobenzyl)amino]cyclopent-2-en-1-one]	> 50 µM
CCCSc1nnc(NC(=O)c2sc3nc(-c4cccs4)ccc3c2N)s1 [3-amino-N-(5-propylsulfanyl-1,3,4-thiadiazol-2-yl)-6-thiophen-2-ylthieno[2,3-b]pyridine-2-carboxamide]	25.7 µM
O=C1Nc2ccccc2SC(c2ccccc2)C1O (configuration not stated) [3-hydroxy-2-phenyl-2,3-dihydro-1,5-benzothiazepin-4(5H)-one]	35.5 µM
CC(C)(C)N1C(=O)Cc2c1nc(N)c1c(N)nc(N3CCCCC3CO)c(C#N)c21 (configuration not stated) [5,6-bis(azanyl)-3-tert-butyl-8-[2-(hydroxymethyl)piperidin-1-yl]-2-oxidanylidene-1H-pyrrolo[2,3-c][2,7]naphthyridine-9-carbonitrile]	> 50 µM
COc1cc(/C=C(/C#N)c2ccc(F)cc2)ccc1OCc1ccc(C(=O)O)o1 [5-({4-[2-cyano-2-(4-fluorophenyl)vinyl]-2-methoxyphenoxy}methyl)-2-furoic acid]	> 50 µM
COc1ccc(Br)cc1C=c1sc2nc(-c3ccco3)nn2c1=O [5-[(5-bromanyl-2-methoxy-phenyl)methylidene]-2-(furan-2-yl)-[1,3]thiazolo[3,2-b][1,2,4]triazol-6-one]	17.2 µM
CCOc1cc(/C=C(/C#N)c2ccc(F)cc2)ccc1OCc1ccc(C(=O)O)o1 [5-[[4-[(E)-2-cyano-2-(4-fluorophenyl)ethenyl]-2-ethoxyphenoxy]methyl]furan-2-carboxylic acid]	41.8 µM
N#Cc1c(NC(=O)c2ccc(Br)o2)n(-c2ccccc2)c2nc3ccccc3nc12 [5-bromanyl-N-(3-cyano-1-phenyl-pyrrolo[3,2-b]quinoxalin-2-yl)furan-2-carboxamide]	> 50 µM
Cc1cccc(N2CCN(C(=O)Cc3c(C(=O)O)[nH]c4ccc(Cl)cc34)CC2)c1C [5-chloranyl-3-[2-[4-(2,3-dimethylphenyl)piperazin-1-yl]-2-oxidanylidene-ethyl]-1H-indole-2-carboxylic acid]	46.8 µM
CCCCCNC(=O)c1ccc2c(=O)[nH]c3c(C(=O)NCC4CCCO4)sc(=S)n3c2c1 (configuration not stated) [5-oxo-N3-(2-oxolanylmethyl)-N8-pentyl-1-sulfanylidene-4H-thiazolo[3,4-a]quinazoline-3,8-dicarboxamide]	36.7 µM
Cc1nc2c(C(=O)NCCC3=CCCCC3)c[nH]n2c(=O)c1Cl [6-chloro-N-(2-cyclohex-1-en-1-ylethyl)-7-hydroxy-5-methylpyrazolo[1,5-a]pyrimidine-3-carboxamide]	49.9 µM
O=C(c1cccs1)c1no[n+]([O-])c1C(=O)c1cccs1 [(5-oxidanidyl-4-thiophen-2-ylcarbonyl-1,2,5-oxadiazol-5-ium-3-yl)-thiophen-2-yl-methanone]	6.96 µM
Nc1c(N2CCCC2)cc(Cl)c2nonc12 [(7-chloro-5-pyrrolidino-benzofurazan-4-yl)amine]	> 50 µM
[O-]/[N+](=C/c1ccc(F)cc1)c1ccccc1 [(E)-(4-fluorobenzylidene)(phenyl)azane oxide]	> 50 µM
CC1=C(/C=C/C(C)=C/C=C/C(C)=C/C(=O)O)C(C)(C)CCC1 [ALL-TRANS-RETINOIC ACID]	48.6 µM
CC(=O)[C@@H]1[C@@H]2C(=O)N(c3ccc(F)c(Cl)c3)C(=O)[C@@H]2C2c3ccccc3C=CN21 (some centres not stated) [MLS000040594]	> 50 µM
COCCCn1c(N)c(C(=O)NCCC(C)C)c2nc3ccccc3nc21 [MLS000041744]	> 50 µM
CCn1c(SCC(=O)Nc2ccc3c(c2)c2ccccc2n3CC)nnc1-c1ccco1 [MLS000050867]	21.1 µM

SMILES	IC50
O=C1C(=C2C(=O)c3ccccc3C2=O)Nc2ccccc21 [MLS000071738]	> 50 µM
COc1ccc(-n2c(NC(=O)c3ccco3)c(C#N)c3nc4ccccc4nc32)cc1 [MLS000079925]	> 50 µM
COc1ccc(Cn2c(C)nc3c(c2=O)c2nc4ccccc4nc2n3Cc2ccco2)cc1 [MLS000079944]	22 µM
Cc1ccc(-c2csc(NC(=O)c3ccno3)n2)cc1 [MLS000081820]	49.8 µM
CC(C)Sc1nc2sc3c(c2c2nnc(SCC(=O)NCc4ccco4)n12)CCCC3 [MLS000082957]	22.7 µM
Nc1nc2c(s1)CCc1c-2cnn1-c1ccccc1 [MLS000085948]	> 50 µM
Cc1cc(NC(=O)c2ccc(S(=O)(=O)N3CCCC3)cc2)nc2c1c(=O)oc1ccccc12 [MLS000091355]	26.1 µM
FC(F)(F)c1ccc(N2CCOCC2)c(Nc2nc3ccccc3n3cnnc23)c1 [MLS000093276]	> 50 µM
COC(=O)c1ccccc1NC(=O)CN1C(=O)C2CCCN2c2ncc(Cl)cc21 (configuration not stated) [MLS000094302]	> 50 µM
CCc1ccc(NC(=O)CSc2nc3ccccc3c(=O)n2CCN2CCOCC2)cc1 [MLS000095236]	> 50 µM
Cc1c(N=c2c(=O)c3ccccc3c2=O)c(=O)n(-c2ccccc2)n1C [MLS000105950]	> 50 µM
CCOc1ccc2noc3c2c1C(=O)c1ccccc1-3 [MLS000106837]	30.2 µM
COc1ccc2noc3c2c1C(=O)c1ccccc1-3 [MLS000106874]	14.3 µM
CCOC(=O)c1ccc2c(c1)C1C=CCC1C(C(=O)O)N2 (configuration not stated) [MLS-0025126.0001]	32.7 µM
O=C(NC1(O)C(=O)c2ccccc2C1=O)c1ccccc1 [N-(2-hydroxy-1,3-dioxo-2-indenyl)benzamide]	> 50 µM
O=C(OC1CCCCC1)c1ccc2c(c1)C1C=CCC1C(C(=O)O)N2 (configuration not stated) [SMR000019385]	17.5 µM
O=C1c2ccccc2-c2onc3ccc(NCCCn4ccnc4)c1c23 [SMR000044769]	35.2 µM
CCCCn1c(NC(=O)c2ccccc2)c(C#N)c2nc3ccccc3nc21 [SMR000060333]	32.4 µM
N#Cc1c(N2CCCC2)nc(N)c2c(N)nc(N3CCCC3)cc12 [SMR000061605]	> 50 µM
